From patent US20080152640A1, “Means and Methods For Treating a Disease Which is Associated With an Excess Transport of Hyaluronan Across a Lipid Bilayer” (priority 2003, published 2008)

Experiments:
MRP7 = target: T1, MRP7 (Homo sapiens, UniProt Q5T3U5); details: cited from earlier work
T1 sequence (Q5T3U5 1-1492): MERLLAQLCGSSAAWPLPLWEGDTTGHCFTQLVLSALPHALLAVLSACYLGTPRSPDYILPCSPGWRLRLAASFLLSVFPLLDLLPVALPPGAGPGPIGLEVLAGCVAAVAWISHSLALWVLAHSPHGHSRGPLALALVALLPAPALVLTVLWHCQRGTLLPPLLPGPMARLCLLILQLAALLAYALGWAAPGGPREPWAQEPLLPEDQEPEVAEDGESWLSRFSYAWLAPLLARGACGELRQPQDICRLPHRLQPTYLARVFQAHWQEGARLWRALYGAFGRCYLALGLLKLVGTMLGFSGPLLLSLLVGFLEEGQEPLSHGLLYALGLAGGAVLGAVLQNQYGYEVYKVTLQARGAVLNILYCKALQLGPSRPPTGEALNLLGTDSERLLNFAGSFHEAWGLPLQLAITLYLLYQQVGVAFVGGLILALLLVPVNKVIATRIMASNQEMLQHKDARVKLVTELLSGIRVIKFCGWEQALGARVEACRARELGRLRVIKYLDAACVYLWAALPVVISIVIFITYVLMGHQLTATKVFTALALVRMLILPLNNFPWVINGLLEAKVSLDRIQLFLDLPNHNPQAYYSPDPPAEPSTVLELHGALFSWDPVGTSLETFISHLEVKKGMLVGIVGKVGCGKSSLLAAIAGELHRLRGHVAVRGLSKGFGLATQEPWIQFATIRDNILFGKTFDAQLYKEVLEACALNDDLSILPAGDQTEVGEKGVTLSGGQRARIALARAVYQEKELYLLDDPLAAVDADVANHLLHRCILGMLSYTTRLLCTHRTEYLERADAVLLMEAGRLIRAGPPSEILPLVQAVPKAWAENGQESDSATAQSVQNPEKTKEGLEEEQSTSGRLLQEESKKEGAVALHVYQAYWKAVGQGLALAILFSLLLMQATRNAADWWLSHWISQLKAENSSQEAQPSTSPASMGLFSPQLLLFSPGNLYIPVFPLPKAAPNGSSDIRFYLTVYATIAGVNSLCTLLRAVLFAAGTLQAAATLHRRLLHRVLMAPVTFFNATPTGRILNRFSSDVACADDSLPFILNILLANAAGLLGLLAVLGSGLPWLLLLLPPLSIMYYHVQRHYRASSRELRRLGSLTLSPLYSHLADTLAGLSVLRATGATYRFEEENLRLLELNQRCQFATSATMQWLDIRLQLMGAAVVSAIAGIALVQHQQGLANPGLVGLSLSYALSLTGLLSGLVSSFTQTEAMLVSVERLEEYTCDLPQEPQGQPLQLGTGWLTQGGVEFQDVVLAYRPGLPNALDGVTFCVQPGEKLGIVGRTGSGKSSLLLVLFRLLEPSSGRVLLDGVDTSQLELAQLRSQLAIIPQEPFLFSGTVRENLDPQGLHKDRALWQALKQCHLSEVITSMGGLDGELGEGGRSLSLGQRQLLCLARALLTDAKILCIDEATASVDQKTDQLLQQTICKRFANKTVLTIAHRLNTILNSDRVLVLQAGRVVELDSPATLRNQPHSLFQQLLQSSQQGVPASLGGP

human skin fibroblasts = test: Proliferation of human skin fibroblasts (cell counting); assay type: cell-based; details: Homo sapiens, Skin fibroblast, read-out: Proliferation (IC50)
Protocol: Human fibroblasts were grown in […] in Dulbecco's modified Eagles medium supplemented with streptomycin/penicillin (100 units of each/ml), kanamycin (100 units/ml) and 10% foetal calf serum. Cell proliferation was determined by cell counting after trypsinisation three days after seeding.

MRP1 = MRP1 (Homo sapiens, UniProt P33527); details: read-out: published inhibitory concentrations IC50 or Ki, MRP1; cited from earlier work
Chain of MRP1 (P33527 whole entry): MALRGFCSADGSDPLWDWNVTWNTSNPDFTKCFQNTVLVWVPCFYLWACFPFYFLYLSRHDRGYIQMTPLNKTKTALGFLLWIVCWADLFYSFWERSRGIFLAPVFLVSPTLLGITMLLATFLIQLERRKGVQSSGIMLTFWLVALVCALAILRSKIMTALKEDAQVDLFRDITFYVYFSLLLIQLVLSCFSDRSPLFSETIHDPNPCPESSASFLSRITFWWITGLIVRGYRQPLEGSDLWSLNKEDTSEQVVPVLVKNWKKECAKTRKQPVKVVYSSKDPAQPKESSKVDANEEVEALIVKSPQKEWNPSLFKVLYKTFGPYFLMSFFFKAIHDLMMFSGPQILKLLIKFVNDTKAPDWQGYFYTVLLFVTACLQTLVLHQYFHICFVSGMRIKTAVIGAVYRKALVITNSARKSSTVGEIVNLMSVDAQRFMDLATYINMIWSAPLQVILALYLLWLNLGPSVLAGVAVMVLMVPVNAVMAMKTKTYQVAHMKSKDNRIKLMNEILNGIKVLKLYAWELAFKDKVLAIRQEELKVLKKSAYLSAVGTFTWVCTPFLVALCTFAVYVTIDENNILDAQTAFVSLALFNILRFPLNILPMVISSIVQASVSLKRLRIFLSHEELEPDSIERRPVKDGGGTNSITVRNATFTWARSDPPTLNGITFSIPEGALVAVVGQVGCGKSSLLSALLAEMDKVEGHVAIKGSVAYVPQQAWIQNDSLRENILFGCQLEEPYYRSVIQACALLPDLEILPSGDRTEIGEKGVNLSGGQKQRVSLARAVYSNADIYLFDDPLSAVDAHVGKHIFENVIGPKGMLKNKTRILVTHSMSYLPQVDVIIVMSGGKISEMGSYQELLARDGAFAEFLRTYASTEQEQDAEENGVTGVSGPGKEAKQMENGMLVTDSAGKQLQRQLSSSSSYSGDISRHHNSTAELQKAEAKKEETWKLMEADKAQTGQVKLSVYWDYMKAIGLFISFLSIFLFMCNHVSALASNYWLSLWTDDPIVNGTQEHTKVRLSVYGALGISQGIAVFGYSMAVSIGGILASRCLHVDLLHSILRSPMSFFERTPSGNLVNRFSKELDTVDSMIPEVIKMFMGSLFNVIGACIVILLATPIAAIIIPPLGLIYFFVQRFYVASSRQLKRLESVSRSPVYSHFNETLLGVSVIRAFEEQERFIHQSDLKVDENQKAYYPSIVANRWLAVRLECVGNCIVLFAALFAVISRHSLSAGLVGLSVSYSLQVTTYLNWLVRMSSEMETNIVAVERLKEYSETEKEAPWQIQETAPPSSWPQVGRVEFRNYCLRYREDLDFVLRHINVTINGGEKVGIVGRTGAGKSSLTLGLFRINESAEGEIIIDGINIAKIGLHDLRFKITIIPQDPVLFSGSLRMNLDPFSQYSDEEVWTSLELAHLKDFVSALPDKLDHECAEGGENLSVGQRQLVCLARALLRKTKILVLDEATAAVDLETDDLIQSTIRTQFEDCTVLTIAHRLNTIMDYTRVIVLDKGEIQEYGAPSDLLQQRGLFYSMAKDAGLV

CCCN(CCC)S(=O)(=O)c1ccc(C(=O)O)cc1 [Probenecid]
inhibition of 17β-glucuronosyl-estradiol export by MRP7 (MRP7): weak inhibitor | published inhibitory concentrations IC50 or Ki, MRP7 (MRP7): weak | IC50 (human skin fibroblasts): 200 µM | IC50 (MRP1): 100 to 200 µM
